Test results reported in ChEMBL document CHEMBL5150057, “Making Protein Degradation Visible: Discovery of Theranostic PROTACs for Detecting and Degrading NAMPT” (J Med Chem, 2022).
Values belong to the compound of their own block, whether it stands above or below them. Active and inactive are the calls of the source. No cut-off for these calls is given here.

Tests used:
[1] = molecular target: T1, Nicotinamide phosphoribosyltransferase (Homo sapiens, UniProt P43490); experiment: Induction of NAMPT degradation in human A2780 cells at 30 nM after 24 hrs; format: cell-based
Target sequence in this assay (P43490 whole entry, looked up): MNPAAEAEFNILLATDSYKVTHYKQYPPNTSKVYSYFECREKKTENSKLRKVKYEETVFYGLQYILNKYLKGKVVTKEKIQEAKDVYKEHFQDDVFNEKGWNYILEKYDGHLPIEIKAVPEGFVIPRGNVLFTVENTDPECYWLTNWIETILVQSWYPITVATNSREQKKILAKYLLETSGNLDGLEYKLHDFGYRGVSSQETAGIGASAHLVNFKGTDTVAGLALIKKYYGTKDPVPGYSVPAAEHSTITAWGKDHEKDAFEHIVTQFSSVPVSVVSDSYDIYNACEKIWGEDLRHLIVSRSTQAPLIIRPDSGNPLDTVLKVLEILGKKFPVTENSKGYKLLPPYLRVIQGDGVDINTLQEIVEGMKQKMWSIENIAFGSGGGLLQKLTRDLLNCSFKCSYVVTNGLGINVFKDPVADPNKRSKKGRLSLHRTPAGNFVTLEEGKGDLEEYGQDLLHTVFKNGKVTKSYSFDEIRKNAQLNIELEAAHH

[2] = molecular target: T1, Nicotinamide phosphoribosyltransferase; experiment: Induction of NAMPT degradation in human A2780 cells at 30 nM incubated for 24 hrs in presence of MG132; format: cell-based
Target sequence in this assay (P43490 whole entry, looked up): as above

[3] = molecular target: T1, Nicotinamide phosphoribosyltransferase; experiment: Induction of NAMPT degradation in human A2780 cells at greater than 50 nM after 24 hrs by Western blot analysis; format: cell-based
Target sequence in this assay (P43490 whole entry, looked up): as above

A2780 [4] = experiment: Antitumor activity against human A2780 cells xenografted in BALB/c nude mouse assessed as tumor growth inhibition at 10 mg/kg, ip administered once daily for 14 days by caliper method; format: functional; conditions: A2780, 336 h, time 14 day, read-out: TGI
[5] = MRT (0 to infinity) in Sprague-Dawley rat at 30 mg/kg, ip measured upto 24 hrs by LC-MS/MS analysis; format: ADME, organism-based; conditions: in vivo
[6] = Cmax in Sprague-Dawley rat at 30 mg/kg, ip measured upto 24 hrs by LC-MS/MS analysis; format: ADME, organism-based; design: dose 30 mg/kg, time < 24 hrs, route ip; conditions: in vivo
[7] = Half life in Sprague-Dawley rat at 30 mg/kg, ip measured upto 24 hrs by LC-MS/MS analysis; format: ADME, organism-based; conditions: in vivo
A2780 [8] = experiment: Antitumor activity against human A2780 cells xenografted in BALB/c nude mouse assessed as tumor growth inhibition at 30 mg/kg, ip administered once daily for 14 days by caliper method; format: functional; conditions: A2780, 336 h, time 14 day, read-out: TGI
[9] = Photostability of compound in PBS at pH 7.4; format: physicochemical; conditions: buffer
[10] = molecular target: T1, Nicotinamide phosphoribosyltransferase; experiment: Induction of NAMPT degradation in human A2780 cells assessed as downregulation of NAD+ levels at 4.1 nM incubated for 24 hrs […]; format: cell-based
Target sequence in this assay (P43490 whole entry, looked up): as above

[11] = molecular target: T1, Nicotinamide phosphoribosyltransferase; experiment: Inhibition of NAMPT catalytic domain (unknown origin) using NAM as substrate preincubated for 5 mins followed by substrate addition
Target sequence in this assay (P43490 whole entry): as the sequence (P43490 whole entry, looked up) above

[12] = Toxicity in BALB/c nude mouse xenografted with human A2780 cells at 10 to 30 mg/kg, ip administered once daily for 14 days by caliper method; format: organism-based; conditions: in vivo, 336 h, dose 10-30 mg/kg, time 14 day
A2780 [13] = experiment: Antitumor activity against human A2780 cells xenografted in ip dosed BALB/c nude mouse administered once daily for 14 days by caliper method; format: functional, organism-based; conditions: dose 10-30 mg/kg, time 14.0 day, DDE = dose-dependent effect
A2780 [14] = experiment: Cytotoxicity against human A2780 cells assessed as cell growth inhibition incubated for 72 hrs in presence of (2S,4R)-1-(2-amino-3,3-dimethyl-butanoyl)-4-hydroxy-N-[(1S)-1-[4-(4-methylthiazol-5-yl)phenyl]ethyl]pyrrolidine-2-carboxamide by CCK-8 assay; format: functional, cell-based; conditions: A2780, 72 h
Mus musculus = experiment: In vivo induction of NAMPT degradation in human A2780 cells xenografted in BALB/c mouse at 10 to 30 mg/kg, ip administered once daily for 14 days by immunofluorescence analysis; format: functional, organism-based; conditions: dose 10-30 mg/kg, time 14.0 day
[15] = molecular target: T1, Nicotinamide phosphoribosyltransferase; experiment: Induction of NAMPT degradation in human A2780 cells at 30 nM after 24 hrs by Western blot analysis; format: cell-based
Target sequence in this assay (P43490 whole entry, looked up): as above

[16] = molecular target: T1, Nicotinamide phosphoribosyltransferase; experiment: Induction of NAMPT degradation in human A2780 cells at 30 nM; format: cell-based; conditions: time 1-24 hrs, TDE = time-dependent effect
Target sequence in this assay (P43490 whole entry, looked up): as above

[17] = molecular target: von Hippel-Lindau disease tumor suppressor (Homo sapiens) (UniProt P40337); experiment: Binding affinity to VHL in human A2780 cells assessed as change in melting temperature at 10 uM after 2 hrs by CESTA; format: cell-based
[18] = Drug uptake in human A2780 cells at 1 uM after 30 mins by immunostaining based assay; format: ADME, cell-based; conditions: a2780, 0.5 h
[19] = molecular target: T1, Nicotinamide phosphoribosyltransferase; experiment: Binding affinity to NAMPT in human A2780 cells assessed as change in melting temperature at 10 uM after 2 hrs by CESTA; format: cell-based
HUVEC = experiment: Cytotoxicity against HUVEC assessed as cell growth inhibition incubated for 72 hrs by CCK-8 assay; format: toxicity, cell-based; conditions: human
[20] = molecular target: T1, Nicotinamide phosphoribosyltransferase; experiment: Binding affinity to NAMPT in human A2780 cells by flow cytometry analysis; format: cell-based; conditions: time 0.5-24 hrs
[21] = molecular target: T1, Nicotinamide phosphoribosyltransferase; experiment: Induction of NAMPT degradation in human A2780 cells at 30 nM after 1 hr; format: cell-based
[22] = Tmax in Sprague-Dawley rat at 30 mg/kg, ip measured upto 24 hrs by LC-MS/MS analysis; format: ADME, organism-based; conditions: in vivo
[23] = AUC (0 to infinity) in Sprague-Dawley rat at 30 mg/kg, ip measured upto 24 hrs by LC-MS/MS analysis; format: ADME, organism-based; design: time < 24 hrs, dose 30 mg/kg, route ip; conditions: in vivo
[24] = molecular target: T1, Nicotinamide phosphoribosyltransferase; experiment: Induction of NAMPT degradation in human A2780 cells after 24 hrs by Western blot analysis; format: cell-based
[25] = Drug uptake in human A2780 cells at 500 nM within 1 to 6 hrs by immunostaining based assay; format: ADME, cell-based; conditions: a2780, 0.5 µM, time 1-6 hrs
A2780 [26] = experiment: Cytotoxicity against human A2780 cells assessed as cell growth inhibition incubated for 72 hrs by CCK-8 assay; format: functional, cell-based; conditions: A2780, 72 h
[27] = molecular target: T1, Nicotinamide phosphoribosyltransferase; experiment: Induction of NAMPT degradation in human A2780 cells at 50 nM after 24 hrs by Western blot analysis; format: cell-based
[28] = molecular target: T1, Nicotinamide phosphoribosyltransferase; experiment: Induction of NAMPT degradation in human A2780 cells at 100 nM after 24 hrs by Western blot analysis; format: cell-based
[29] = Toxicity in BALB/c nude mouse xenografted with human A2780 cells at 30 mg/kg, ip administered once daily for 14 days by caliper method; format: organism-based; conditions: in vivo, 336 h, time 14 day
[30] = Drug uptake in human A2780 cells at 500 nM after 6 hrs by confocal imaging analysis; format: ADME, cell-based; conditions: a2780, 6 h, 0.5 µM
[31] = Drug uptake in human A2780 cells at 500 nM within 1 to 6 hrs by confocal imaging analysis; format: ADME, cell-based; conditions: a2780, 0.5 µM, time 1-6 hrs

Chain of von Hippel-Lindau disease tumor suppressor (Homo sapiens) (P40337 whole entry, looked up): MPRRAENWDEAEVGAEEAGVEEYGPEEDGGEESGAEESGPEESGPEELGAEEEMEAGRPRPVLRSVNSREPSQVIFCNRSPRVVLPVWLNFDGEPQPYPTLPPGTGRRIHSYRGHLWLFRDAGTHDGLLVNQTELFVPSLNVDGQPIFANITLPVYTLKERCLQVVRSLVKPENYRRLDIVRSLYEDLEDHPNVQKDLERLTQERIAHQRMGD

- Activity [1]: Active
- Activity [2]: Active
- Activity [3]: Active
- MRT inf [5]: 12.7 h
- Cmax [6]: 175 ng/mL
- half-life [7]: 9.81 h
- Stability [9]: Stable
- Activity [10]: Active
- IC50 [11]: 41.9 nM
- Activity [15]: Active
- Activity [16]: Tde
- ΔTm [17]: > 2.62 °C
- Drug uptake [18]: Active
- ΔTm [19]: 5.11 °C
- Activity [20]: Active
- Activity [21]: Active
- Tmax [22]: 4 h
- AUC(0-inf) [23]: 1110 ng·h/mL
- DC50 [24]: 8.4 nM
- Activity ([24]; DDE = dose-dependent effect): Dde
- Drug uptake [25]: Active
Compound: CCCn1c(=O)c(-c2ccc(C(=O)NCc3cccnc3)cc2)nc2ccc(NC(=O)CCCCCCCCCCC(=O)N[C@H](C(=O)N3C[C@H](O)C[C@H]3C(=O)N[C@@H](C)c3ccc(-c4scnc4C)cc3)C(C)(C)C)cc21
- inhibition in vivo at 10 mg/kg (A2780 [4]): 53%
- inhibition in vivo at 30 mg/kg (A2780 [8]): 73%
- Activity [12]: Non-Toxic
- Activity (A2780 [13]): Dde
- IC50 (A2780 [14]): 100 nM
- Activity (Mus musculus): Active
- Activity (HUVEC): Non-Toxic
- IC50 (A2780 [26]): 12.1 nM

- Activity [15]: Active
- Activity [27]: Active
Compound: CCCn1c(=O)c(-c2ccc(C(=O)NCc3cccnc3)cc2)nc2ccc(NC(=O)CCCCCCCCC(=O)N[C@H](C(=O)N3C[C@H](O)C[C@H]3C(=O)N[C@@H](C)c3ccc(-c4scnc4C)cc3)C(C)(C)C)cc21
- IC50 (A2780 [26]): 14 nM

- Activity [15]: Active
- Activity [28]: Active
Compound: CCCn1c(=O)c(-c2ccc(C(=O)NCc3cccnc3)cc2)nc2ccc(NC(=O)CCCCCCC(=O)N[C@H](C(=O)N3C[C@H](O)C[C@H]3C(=O)N[C@@H](C)c3ccc(-c4scnc4C)cc3)C(C)(C)C)cc21
- IC50 (A2780 [26]): 20.8 nM

- IC50 [11]: 57.8 nM
Compound: CCCn1c(=O)c(-c2ccc(C(=O)NCc3cccnc3)cc2)nc2ccccc21
- Activity (HUVEC): Non-Toxic
- Activity [29]: Toxic
- IC50 (A2780 [26]): 99 nM

- Drug uptake [30]: Active
- Drug uptake [31]: Active
Compound: CCCn1c(=O)c(-c2ccc(C(=O)NCc3cccnc3)cc2)nc2ccc(NC(=O)CCCCCCCCCCC(=O)N[C@H](C(=O)N3C[C@@H](O)C[C@@H]3C(=O)N[C@@H](C)c3ccc(-c4scnc4C)cc3)C(C)(C)C)cc21
- IC50 (A2780 [26]): 143 nM

Compound: CCCn1c(=O)c(-c2ccc(C(=O)NCc3cccnc3)cc2)nc2ccc(NC(=O)CCCCC(=O)N[C@H](C(=O)N3C[C@H](O)C[C@H]3C(=O)N[C@@H](C)c3ccc(-c4scnc4C)cc3)C(C)(C)C)cc21
- IC50 (A2780 [26]): 88 nM
